The numbers were not newly measured in PMC11677126, “Synthesis and Structure–Activity Relationship of Thiourea Derivatives Against Leishmania amazonensis” (Pharmaceuticals, 2024), which cites them from elsewhere.

The subject of data set [1] is Leishmania major promastigotes. Also on record: method as in PMID 36001225. The note with it: after 48 h (text b28); cited from earlier work.
A further data set relates to L. infantum amastigote. The note with it: cited from earlier work.
For the next data set, the system named is L. donovani amastigote. The note with it: cited from earlier work.
Data set [2] has as its system L. amazonensis promastigote. Also noted: method as in PMID 28966275. The note with it: cited from earlier work.
In data set [3] the test system is Leishmania amazonensis amastigotes. Also noted: method as in PMID 28966275. The note with it: read-out: IC50 (amastigote); cited from earlier work.

A value given as a limit tells only on which side of the number the result lay.

A word on the IC50: it is the concentration that inhibits the measured activity by half. On to `Cc1sc(NC(=S)NC(=O)C2CC2)nc1-c1ccccc1` [Compound 11], for which the IC50 in data set [1] was 122 ± 1.41 µM.

Consider `CC(C)Oc1cc(C(=O)Nc2cc(-c3ccccn3)n[nH]2)cc(C(=O)N2CCCC2)c1` [Compound 6], for which the IC50 in the data set on L. infantum amastigote was over 42.4 µM; in the data set on L. donovani amastigote it was at least 10.9 µM.

In the case of `S=C(NCCc1ccccc1)Nc1ccc2c(c1)OCO2` [Compound 8], the IC50 was 54.1 ± 6.77 µM in data set [2] and 70 µM in data set [3]. As to `C[C@@H]1[C@H](O)[C@@H](C)/C=C/C=C/C=C/C=C/C=C/C=C/C=C/[C@H](O[C@@H]2O[C@H](C)[C@@H](O)[C@H](N)[C@@H]2O)C[C@@H]2O[C@](O)(C[C@@H](O)C[C@@H](O)[C@H](O)CC[C@@H](O)C[C@@H](O)CC(=O)O[C@H]1C)C[C@H](O)[C@H]2C(=O)O` [amphotericin B], the IC50 in data set [1] was 0.2 ± 0.01 µM.
